Test results reported in patent US8377974B2 (Millennium Pharmaceuticals, Inc., priority 2004, dated 2013).

Target: T1, human plasma protein factor Xa (Homo sapiens, UniProt P00742)
T1 construct: measure proteolytic activity of the enzyme (factor Xa); purchased Haematologic Technologies (Essex Junction, Vt.); host or cells: human plasma
Experiment: Factor Xa IC50 determination: cleavage of paranitroanilide substrate S-2765 in 96-well plates
Format: biochemical
Settings: fXa 1 nM, S-2765 100 μM, Tris buffered saline pH 7.4, room temperature
Summary of the method: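 Human plasma factor Xa (1 nM) preincubated 5 min at room temperature with inhibitor (0.01 nM–10 μM final) in Tris-buffered saline pH 7.4 with 5 mM CaCl2, 0.1% BSA, 5% DMSO. S-2765 at 100 μM final; hydrolysis at 405 nm over 2 min. IC50 from 4-parameter fit of initial velocities.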

T1 sequence (P00742 235-488 limits assumed): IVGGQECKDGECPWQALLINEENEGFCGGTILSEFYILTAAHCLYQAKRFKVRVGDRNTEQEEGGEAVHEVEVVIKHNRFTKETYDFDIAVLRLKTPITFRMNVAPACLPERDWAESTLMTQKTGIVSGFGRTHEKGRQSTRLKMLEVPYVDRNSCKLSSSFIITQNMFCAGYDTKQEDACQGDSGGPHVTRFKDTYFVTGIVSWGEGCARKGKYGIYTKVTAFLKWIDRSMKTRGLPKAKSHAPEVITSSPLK
T1 sequence (P00742 41-179 partner limits assumed): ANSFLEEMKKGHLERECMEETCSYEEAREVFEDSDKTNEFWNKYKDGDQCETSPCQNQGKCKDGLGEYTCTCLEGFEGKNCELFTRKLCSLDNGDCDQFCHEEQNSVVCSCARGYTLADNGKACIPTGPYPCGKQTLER

| IC50 [µM] | SMILES |
| --- | --- |
| ≤ 0.1 | CCOc1cc(C(=N)N(C)C)ccc1-c1cc(CNC(=O)c2ccc(Cl)s2)on1 [Example 122, 5-Chloro-thiophene-2-carboxylic acid {3-[4-(N,N-dimethyl-carbamimidoyl)-2-ethoxy-phenyl]-isoxazol-5-ylmethyl}-amide] |
| ≤ 0.1 | CC(C)Oc1cc(C(=N)N(C)C)ccc1C1=NOC(CNC(=O)c2ccc(Cl)s2)C1 (centres unmarked) [Example 109, 5-Chloro-thiophene-2-carboxylic acid {3-[4-(N,N-dimethyl-carbamimidoyl)-2-isopropoxy-phenyl]-4,5-dihydro-isoxazol-5-ylmethyl}-amide] |
| ≤ 0.1 | CC(C)Oc1cc(C(=N)N2CCCC2)ccc1-c1cc(CNC(=O)c2ccc(Cl)s2)on1 [Example 128, 5-Chloro-thiophene-2-carboxylic acid {3-[4-(imino-pyrrolidin-1-yl-methyl)-2-isopropoxy-phenyl]-isoxazol-5-ylmethyl}-amide] |
| ≤ 0.1 | CSc1cc(C(=N)N2CCCC2)ccc1C1=NOC(CNC(=O)c2ccc(Cl)s2)C1 (centres unmarked) [Example 138, 5-Chloro-thiophene-2-carboxylic acid {3-[4-(imino-pyrrolidin-1-yl-methyl)-2-methylsulfanyl-phenyl]-4,5-dihydro-isoxazol-5-ylmethyl}-amide] |
| ≤ 0.1 | COc1cc(C(=N)N(C)C)ccc1C1=NOC(CNC(=O)c2ccc(Cl)s2)C1 (centres unmarked) [Example 102, 5-Chloro-thiophene-2-carboxylic acid {3-[4-(N,N-dimethyl-carbamimidoyl)-2-methoxy-phenyl]-4,5-dihydro-isoxazol-5-ylmethyl}-amide] |
| ≤ 0.1 | COc1ccc(Oc2cc(C(=N)N3CCCC3)ccc2-c2cc(CNC(=O)c3ccc(Cl)s3)on2)cc1 [Example 135, 5-Chloro-thiophene-2-carboxylic acid {3-[4-(imino-pyrrolidin-1-yl-methyl)-2-(4-methoxy-phenoxy)-phenyl]-isoxazol-5-ylmethyl}-amide] |
| 0.1 to 0.5 | C#CCN(C)C(=N)c1ccc(-c2cc(CNC(=O)c3ccc(Cl)s3)on2)cc1 [Example 33, 5-Chloro-thiophene-2-carboxylic acid {3-[4-(N-methyl-N-prop-2-ynyl-carbamimidoyl)-phenyl]-isoxazol-5-ylmethyl}-amide] |
| ≤ 0.1 | CCN(C)C(=N)c1ccc(-n2cc(CNC(=O)c3ccc(Cl)s3)nn2)cc1 [Example 314, N-((1-(4-(N-Ethyl-N-methylcarbamimidoyl)phenyl)-1H-1,2,3-triazol-4-yl)methyl)-5-chlorothiophene-2-carboxamide] |
| ≥ 0.5 | CC1(CNC(=O)c2ccc(Cl)s2)CC(c2ccccc2)=NO1 (centres unmarked) [Example 145, 5-Chloro-thiophene-2-carboxylic acid (5-methyl-3-phenyl-4,5-dihydro-isoxazol-5-ylmethyl)-amide] |
| ≤ 0.1 | N=C(c1ccc(-c2cncc(CNC(=O)c3ccc(Cl)s3)c2)cc1)N1CCCC1 [Example 372, 5-Chloro-N-((5-(4-(imino(pyrrolidin-1-yl)methyl)phenyl)pyridin-3-yl)methyl)thiophene-2-carboxamide] |
| ≤ 0.1 | COCCN(C)c1cc(C(=N)N(C)C)ccc1C1=NOC(CNC(=O)c2ccc(Cl)s2)C1 (centres unmarked) [Example 86, 5-Chloro-thiophene-2-carboxylic acid (3-{4-(N,N-dimethyl-carbamimidoyl)-2-[(2-methoxy-ethyl)-methyl-amino]-phenyl}-4,5-dihydro-isoxazol-5-ylmethyl)-amide] |
| ≤ 0.1 | N=C(c1ccc(-c2cc(CNC(=O)c3ccc(Cl)s3)no2)cc1)N1CCCCC1 [Example 333, 5-Chloro-N-((5-(4-(imino(piperidin-1-yl)methyl)phenyl)isoxazol-3-yl)methyl)thiophene-2-carboxamide] |
| ≤ 0.1 | N=C(c1ccc(-n2cc(CNC(=O)c3ccc(Cl)s3)cn2)cc1)N1CCCC1 [Example 328, 5-Chloro-N-((1-(4-(imino(pyrrolidin-1-yl)methyl)phenyl)-1H-pyrazol-4-yl)methyl)thiophene-2-carboxamide] |
| ≤ 0.1 | O=C(NCc1cc(-c2ccc(-n3ccccc3=O)cc2)no1)c1ccc(Cl)s1 [Example 289, 5-Chloro-N-((3-(4-(2-oxopyridin-1(2H)-yl)phenyl)isoxazol-5-yl)methyl)thiophene-2-carboxamide] |
| ≤ 0.1 | CN(C)CCCN(C)c1ccc(C2=NOC(CNC(=O)c3ccc(Cl)s3)C2)cc1 (centres unmarked) [Example 239, 5-Chloro-thiophene-2-carboxylic acid (3-{4-[(3-dimethylamino-propyl)-methyl-amino]-phenyl}-4,5-dihydro-isoxazol-5-ylmethyl)-amide] |
| ≥ 0.5 | CN(C)Cc1ccc(-c2ccc(-c3cc(CNC(=O)c4ccc(Cl)s4)on3)cc2)cc1 [Example 213, 5-Chloro-thiophene-2-carboxylic acid [3-(4′-dimethylaminomethyl-biphenyl-4-yl)-isoxazol-5-ylmethyl]-amide] |

| IC50 [µM] | SMILES |
| --- | --- |
| ≤ 0.1 | N#Cc1ccc(C2=NOC(CNC(=O)c3ccc(Cl)s3)C2)cc1 (centres unmarked) [Example 7, 5-Chloro-thiophene-2-carboxylic acid [3-(4-cyano-phenyl)-4,5-dihydro-isoxazol-5-ylmethyl]-amide] |
| ≤ 0.1 | COc1ccc(-c2ccc(-c3cc(CNC(=O)c4ccc(Cl)s4)on3)cc2)c(CN(C)C)c1 [Example 217, 5-Chloro-thiophene-2-carboxylic acid [3-(2′-dimethylaminomethyl-4′-methoxy-biphenyl-4-yl)-isoxazol-5-ylmethyl]-amide] |
| ≤ 0.1 | CN(Cc1ccco1)C(=N)c1ccc(-c2cc(CNC(=O)c3ccc(Cl)s3)on2)cc1 [Example 31, 5-Chloro-thiophene-2-carboxylic acid {3-[4-(N-furan-2-ylmethyl-N-methyl-carbamimidoyl)-phenyl]-isoxazol-5-ylmethyl}-amide] |
| ≤ 0.1 | COc1cccn(-c2ccc(-n3cc(CNC(=O)c4ccc(Cl)s4)nn3)cc2)c1=O [Example 294, 5-Chloro-N-((1-(4-(3-methoxy-2-oxopyridin-1(2H)-yl)phenyl)-1H-1,2,3-triazol-4-yl)methyl)thiophene-2-carboxamide] |
| ≤ 0.1 | CCN(CC)CCN(C)C(=O)c1ccc(C2=NOC(CNC(=O)c3ccc(Cl)s3)C2)cc1 (centres unmarked) [Example 166, 5-Chloro-thiophene-2-carboxylic acid (3-{4-[(2-diethylamino-ethyl)-methyl-carbamoyl]-phenyl}-4,5-dihydro-isoxazol-5-ylmethyl)-amide] |
| ≥ 0.5 | O=C(NCc1cc(-c2cccc(-c3cccc(CN4CCCC4)c3)c2)no1)c1ccc(Cl)s1 [Example 271, 5-Chloro-thiophene-2-carboxylic acid [3-(3′-pyrrolidin-1-ylmethyl-biphenyl-3-yl)-isoxazol-5-ylmethyl]-amide] |
| 0.1 to 0.5 | O=C(NCC1CC(c2ccc(Nc3ccnc(Cl)c3)cc2)=NO1)c1ccc(Cl)s1 (centres unmarked) [Example 229, 5-Chloro-thiophene-2-carboxylic acid {3-[4-(2-chloro-pyridin-4-ylamino)-phenyl]-4,5-dihydro-isoxazol-5-ylmethyl}-amide] |
| ≤ 0.1 | CN(C)CCN(C)C(=N)c1ccc(C2=NOC(CNC(=O)c3ccc(Cl)s3)C2)cc1 (centres unmarked) [Example 16, 5-Chloro-thiophene-2-carboxylic acid (3-{4-[N-(2-dimethylamino-ethyl)-N-methyl-carbamimidoyl]-phenyl}-4,5-dihydro-isoxazol-5-ylmethyl)-amide] |
| ≤ 0.1 | COc1cc(C(=N)N2CCCCC2)ccc1C1=NOC(CNC(=O)c2ccc(Cl)s2)C1 (centres unmarked) [Example 105, 5-Chloro-thiophene-2-carboxylic acid {3-[4-(imino-piperidin-1-yl-methyl)-2-methoxy-phenyl]-4,5-dihydro-isoxazol-5-ylmethyl}-amide] |
| 0.1 to 0.5 | N=C(c1ccc(C2=NOC(CNC(=O)c3ccc(Cl)s3)C2)c(N2CCOCC2)c1)N1CCCC1 (centres unmarked) [Example 84, 5-Chloro-thiophene-2-carboxylic acid {3-[4-(imino-pyrrolidin-1-yl-methyl)-2-morpholin-4-yl-phenyl]-4,5-dihydro-isoxazol-5-ylmethyl}-amide] |
| ≤ 0.1 | CN(C)C(=N)c1ccc(C2=NOC(CNC(=O)c3ccc(Cl)s3)C2)cc1 (centres unmarked) [Example 8, 5-Chloro-thiophene-2-carboxylic acid {3-[4-(N,N-dimethyl-carbamimidoyl)-phenyl]-4,5-dihydro-isoxazol-5-ylmethyl}-amide] |
| ≤ 0.1 | N=C(c1ccc(-c2nc(CNC(=O)c3ccc(Cl)s3)co2)cc1)N1CCCC1 [Example 340, 5-Chloro-N-((2-(4-(imino(pyrrolidin-1-yl)methyl)phenyl)oxazol-4-yl)methyl)thiophene-2-carboxamide] |
| ≥ 0.5 | CN(Cc1cc(-c2ccc(C(N3CCC3)=[N+]3CCC3)cc2)no1)C(=O)c1ccc(Cl)s1 [Example 41, 5-Chloro-thiophene-2-carboxylic acid {3-[4-(azetidin-1-yl-azetidin-1-ylidene-methyl)-phenyl]-isoxazol-5-ylmethyl}-methyl-amide] |
| ≤ 0.1 | CN1CCN=C1c1ccc(-n2cc(CNC(=O)c3ccc(Cl)s3)nn2)cc1 [Example 312, 5-Chloro-N-((1-(4-(1-methyl-4,5-dihydro-1H-imidazol-2-yl)phenyl)-1H-1,2,3-triazol-4-yl)methyl)thiophene-2-carboxamide] |
| ≤ 0.1 | CN1CCN(Cc2ccccc2-c2ccc(C3=NOC(CNC(=O)c4ccc(Cl)s4)C3)cc2)CC1 (centres unmarked) [Example 199, 5-Chloro-thiophene-2-carboxylic acid {3-[2′-(4-methyl-piperazin-1-ylmethyl)-biphenyl-4-yl]-4,5-dihydro-isoxazol-5-ylmethyl}-amide] |
| ≤ 0.1 | CN1CCN(c2cc(-n3ccccc3=O)ccc2-n2cc(CNC(=O)c3ccc(Cl)s3)nn2)CC1 [Example 308, 5-Chloro-N-((1-(2-(4-methylpiperazin-1-yl)-4-(2-oxopyridin-1(2H)-yl)phenyl)-1H-1,2,3-triazol-4-yl)methyl)thiophene-2-carboxamide] |
